In US7038106B1, “Detection of neural activity” (The University Court of the University of Glasgow, priority 1998, dated 2006):
Entries after “also recorded” stand apart in the source; their conditions may differ. Where two headings read alike, the source gives them in different places.

Legend:
[1] = test system: Honeybee KCs delayed rectifier-type current; conditions: cited from earlier work
[2] = test system: mushroom bodies (Kenyon cells) of Drosophila adult brain; assay: Aequorin luminometry of endogenous intracellular calcium oscillation in intact Drosophila brain (GAL4-aeq lines); type: cell-based; conditions: for EC50: Drosophila melanogaster, read-out: EC50 for reduction of oscillation amplitude; for Effect on oscillation amplitude and period/frequency: concentration not given
[3] = test system: Honeybee KCs calcium current; conditions: cited from earlier work

C=C[C@H]1C[N@@]2CC[C@H]1C[C@@H]2[C@@H](O)c1ccnc2ccc(OC)cc12 [Quinidine]
Effect on delayed rectifier-type current ([1]; 100 μM): blocked

Nc1ccncc1 [4-aminopyridine]
Sensitivity of oscillation in Sh5 background relative to Sh+ control (less sensitive) [2]: 10 fold | EC50 ([2]; dose-response curves from amplitudes measured before and after treatment, […]): ~30 µM | Effect on oscillation frequency / period ([2]; concentration not stated or dose-dependent): dose-dependent reduction of oscillation period | Effect on oscillation amplitude ([2]; concentration not stated or dose-dependent, […]): reduce oscillation amplitude in a dose-dependent manner

O=C(O)CN(CCOCCOCCN(CC(=O)O)CC(=O)O)CC(=O)O [EGTA]
Effect on oscillation ([2]; 1 mM, removal of external calcium): Oscillation ceases

Picrotoxin [Pierotoxin]
Effect on oscillation amplitude and period/frequency [2]: opposite effects

CN1CCCC1c1cccnc1 (stereo not shown) [Nicotine]
Effect on oscillation [2]: complete abolition of oscillation

[Co] [Cobalt]
Effect on oscillation ([2]; 1–10 mM range): gradual dampening effect on oscillation

Nc1c2c(nc3ccccc13)CCCC2 [Tacrine]
EC50 ([2]; dose-response curves from amplitudes measured before and after treatment, 117Y-aeq adult brains): ~1 µM | Effect on oscillation amplitude and period/frequency [2]: reduce both oscillation amplitude and frequency

CCCC(=O)Nc1ncnc2c1ncn2[C@@H]1O[C@@H]2COP(=O)(O)O[C@H]2[C@H]1OC(=O)CCC [dibutyryl cAMP]
Effect on oscillation ([2]; 1 mM, cAMP pathway): ineffective

NC1=N[C@H](O)[C@H]2[C@H]3O[C@]4(O)O[C@@H]([C@@H](O)[C@@]2(N1)[C@@H]4O)[C@]3(O)CO [Tetrodotoxin]
Effect on oscillation [2]: cessation of oscillation within a few cycles of application; also recorded: oscillation resumes in the form of a series of spaced bursts of very high relative amplitude

NCCCC(=O)O [GABA]
Effect on oscillation amplitude and period ([2]; 1 mM): increases both amplitude and period | Effect on oscillation amplitude and period/frequency [2]: increases both amplitude and period

COc1ccc(CCN(C)CCCC(C#N)(c2ccc(OC)c(OC)c2)C(C)C)cc1OC (stereo not shown) [Verapamil]
Effect on calcium current [3]: affected

CC(=O)[O-].CC[N+](CC)(CC)CC [TEA, tetraethylammonium acetate]
Sensitivity of delayed rectifier-type current [1]: only weakly sensitive | Effect on oscillation [2]: eliminate oscillations | EC50 [2]: ~70 µM
